Experimental findings from patent US6777408B1, “Pyrido-thieno-diazepines method for the production thereof and pharmaceutical compositions containing said pyrido-thieno-diazepines” (Societe de Conseils de Recherches et d'Applications …, priority 1999, dated 2004) are described below.

Molecules are shown by their SMILES.

As a reminder, the melting point is the temperature, or range, at which the solid turns liquid. Turning to `COc1ccc(NC(=S)N2CCc3c(sc4c3C(c3ccccc3Cl)=NCC(=S)N4CCc3ccccc3)C2)c([N+](=O)[O-])c1`, the melting point was 152 °C. Next, `COc1ccc(NC(=S)N2CCc3c(sc4c3C(c3ccccc3Cl)=NC(OC(=O)CCCCCCN)C(=O)N4CCc3ccccc3)C2)c([N+](=O)[O-])c1` (stereo not drawn) [Example 8, 3-(7-amino-1-oxo-heptyloxy)-5-(2-chlorophenyl)-1,2,3,6,7,9-hexahydro-N-(4-methoxy-2-nitrophenyl)-2-oxo-1-(2-phenylethyl)-8H-pyrido[4′,3′:4,5]thieno[2,3-e]-1,4-diazepine-8-carbothioamide]: 90 to 95 °C.

Compound `O=C1CNC(c2ccccc2Cl)c2c(sc3c2CCNC3)N1CCc1ccccc1` (stereo not drawn) [Example 13, 5-(2-chlorophenyl)-1,3,4,5,6,7,8,9-octahydro-1-(2-phenylethyl)-2H-pyrido[4′,3′:4,5]thieno[2,3-e]-1,4-diazepine-2-one] gave a melting point of 128 to 130 °C.
